Source: US8343892B2 (priority 2003, dated 2013)

Test system: Phytophthora infestans
Type: in vivo
Settings: tomato (Marmande), 48 h preventive, assessed 5 days after contamination; lower line = chlorothalonil dose (in mixture or alone)

## N#Cc1c(Cl)c(Cl)c(Cl)c(C#N)c1Cl [Chlorothalonil, tetrachloroisophthalonitrile]
  ED70, Practical doses for 70% efficacy: dose of chlorothalonil: 16.1 µg/mL
  ED90, Practical doses for 90% efficacy: dose of chlorothalonil: 36.7 µg/mL
